Experimental findings from BindingDB's records for doi:10.1111/j.1747-0285.2012.01416.x (University of California San Diego, 2012) are described below.

Each structure is given as a SMILES string. pIC50: −log10 of the molar value.

The target in the test is Cruzipain (Trypanosoma cruzi, UniProt P25779). Kind of test: Enzymatic Assay. The text has this: Enzymatic inhibition using cruzain.
Cruzipain, sequence (P25779 whole entry): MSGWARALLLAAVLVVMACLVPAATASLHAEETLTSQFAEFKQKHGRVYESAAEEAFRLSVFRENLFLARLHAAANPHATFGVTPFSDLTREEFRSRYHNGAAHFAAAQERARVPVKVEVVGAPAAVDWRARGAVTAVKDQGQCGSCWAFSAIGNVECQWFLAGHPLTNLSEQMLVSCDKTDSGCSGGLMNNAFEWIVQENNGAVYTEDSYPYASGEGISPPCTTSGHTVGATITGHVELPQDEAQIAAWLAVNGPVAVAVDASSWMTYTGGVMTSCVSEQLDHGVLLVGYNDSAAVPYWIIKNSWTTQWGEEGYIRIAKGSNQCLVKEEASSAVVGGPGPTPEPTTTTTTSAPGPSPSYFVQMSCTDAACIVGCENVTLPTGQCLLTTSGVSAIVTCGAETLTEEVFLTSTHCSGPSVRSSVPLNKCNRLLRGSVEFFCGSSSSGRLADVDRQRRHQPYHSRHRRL

Usually pIC50 stands for −log10 of the IC50, conventionally taken in molar units. High values mean a small IC50, low ones a large IC50. The compound `Cn1ccc(=Nc2ccc(NC(=O)c3ccc(N=c4ccn(C)c5ccc([N+](=O)[O-])cc45)cc3)cc2)cc1` [4-[(1-methyl-6-nitro-quinolin-4-ylidene)amino]-N-[4-[(1-methylpyridin-4-ylidene)amino]phenyl]benzamide] had a pIC50 of 4.20.

Consider `CO[C@H]1[C@@H](OC(=O)c2ccc(C)[nH]2)[C@@H](O)C(Oc2ccc3c(O)c(NC(=O)c4ccc(O)c(CC=C(C)C)c4)c(=O)oc3c2Cl)OC1(C)C` (some centres not stated) [NSC227186], for which the pIC50 was 4.80.
